In experiment [1] the target is T1, hA2a (Homo sapiens (Human), UniProt P29274). Briefly: cAMP inhibition assay in hA2a/CHO cells. Format: cell-based. As to conditions: adenosine stimulation, read-out: cAMP & FLIPR IC50 (nM) hA2a. The method, boiled down:
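CHO cells expressing human A2a, human A2b or mouse A2a, 5×10^3 cells/well, pre-incubated with compound 30 min at 37 °C, then stimulated with […] adenosine 30 min at 37 °C. cAMP read after 60 min room-temperature incubation with detection reagent.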

Another experiment has as its target hA2b (Homo sapiens (Human), UniProt P29275). Briefly: cAMP inhibition assay in hA2b/CHO cells. In kind it is cell-based. The settings on record: adenosine stimulation, read-out: cAMP & FLIPR IC50 (nM) hA2b. The method, then:
(§1) hA2a/CHO, hA2b/CHO and mA2a/CHO (Genscript) were plated at 5×10^3 cells/well into 384-well polystyrene plates at the day of experiment. Compounds were pre-incubated with cells for 30 min at 37° C., 5% CO2. Then […] adenosine was added to the cells and incubated for 30 min at 37° C., 5% CO2. Detection reagent (CISBIO) was added and the plates were incubated for 60 min at room temperature. The signal was captured by Envision.

For a further experiment, the target named is mA2a (Mus musculus (Mouse), UniProt Q60613). As to the kind of experiment: cAMP inhibition assay in mA2a/CHO cells. Format: cell-based. The settings on record: adenosine stimulation, read-out: cAMP & FLIPR IC50 (nM) mA2a. The method, then: as §1
The target of experiment [2] is T2, hA1 (Homo sapiens (Human), UniProt P30542). As to the kind of experiment: FLIPR inhibition assay in hADORA1/CHO (hA1 expressing) cells. In kind it is cell-based. The settings on record: hADORA1/CHO cells, FLIPR calcium, adenosine stimulation; read-out: cAMP & FLIPR IC50 (nM) hA1. The method, boiled down:
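CHO cells expressing human A1 were plated at 1×10^4 cells/well the day before, then loaded with FLIPR Calcium 5 dye for 60 min at 37 °C, 5% CO2. Compounds were added at several concentrations for 400 s before stimulation with […] adenosine. The calcium signal was recorded by FLIPR.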

For a further experiment, the target named is hA3 (Homo sapiens (Human), UniProt P0DMS8). Briefly: cAMP & FLIPR inhibition, hA3 over-expressing cell line. Format: cell-based. The text has this:
FLIPR™ and cAMP inhibition activities of exemplary compounds in different adenosine receptor over-expressing cell lines are shown in Table 4 below.

Experiment [3] deals with T1, hA2a. As to the kind of experiment: Radioligand binding to hA2a membrane ([3H]-CGS21680). As to conditions: [3H]-CGS21680, 90 min at 25° C., read-out: Binding Affinity (IC50 nM) hA2a. The method, then:
(§2) Binding affinity and specificities of the compounds against different subtype of human adenosine receptors (hA1, hA2A, hA2B and hA3) were characterized with cell membrane chromatography binding analysis.
The compounds at different concentrations were incubate with hA2a membrane (from PerkinElmer) and [^3H]-CGS21680 for 90 min at 25° C., meanwhile 100 μL 0.5% PEI solution was added into […]-96 GF/B filter plate for 60 min at 4° C., then […]-96 GF/B filter plate was washed twice with 50 ml wash buffer, the membrane mix was transferred into […]-96 GF/B filter plate, and the filter plate was washed 4 times before incubated at 55° C. for 10 min. At last, […] ULTIMA GOLD was added into each well, and CPM was read by TopCount.
(§3) The empty boxes in the tables below indicate data not available.

Experiment [4] concerns the target T2, hA1. Briefly: Radioligand binding to hA1 membrane ([3H]-DPCPX). As to conditions: 50 min at 25° C., read-out: Binding Affinity (IC50 nM) hA1. The method, then: as §2
The compounds at different concentrations were incubate with hA1 membrane (from PerkinElmer) and [^3H]-8-Cyclopentyl-1,3-dipropylxanthine (DPCPX) for 50 min at 25° C., meanwhile 100 μL 0.5% PEI solution was added into […]-96 GF/B filter plate for 60 min at 4° C., then […]-96 GF/B filter plate was washed twice with 50 ml wash buffer, the membrane mix was transferred into […]-96 GF/B filter plate, and the filter plate was washed 4 times before incubated at 55° C. for 10 min. At last, […] ULTIMA GOLD was added into each well, and CPM was read by TopCount.
as §3

T2 sequence (P30542 whole entry): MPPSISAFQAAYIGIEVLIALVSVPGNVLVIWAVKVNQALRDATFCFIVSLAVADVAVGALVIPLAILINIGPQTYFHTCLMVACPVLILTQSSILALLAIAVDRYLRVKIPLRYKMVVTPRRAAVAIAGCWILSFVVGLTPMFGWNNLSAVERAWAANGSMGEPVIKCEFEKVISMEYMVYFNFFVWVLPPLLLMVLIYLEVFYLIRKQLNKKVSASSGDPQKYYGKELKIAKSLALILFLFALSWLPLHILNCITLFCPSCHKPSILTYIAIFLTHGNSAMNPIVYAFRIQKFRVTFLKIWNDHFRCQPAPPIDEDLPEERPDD
T1 sequence (P29274 whole entry): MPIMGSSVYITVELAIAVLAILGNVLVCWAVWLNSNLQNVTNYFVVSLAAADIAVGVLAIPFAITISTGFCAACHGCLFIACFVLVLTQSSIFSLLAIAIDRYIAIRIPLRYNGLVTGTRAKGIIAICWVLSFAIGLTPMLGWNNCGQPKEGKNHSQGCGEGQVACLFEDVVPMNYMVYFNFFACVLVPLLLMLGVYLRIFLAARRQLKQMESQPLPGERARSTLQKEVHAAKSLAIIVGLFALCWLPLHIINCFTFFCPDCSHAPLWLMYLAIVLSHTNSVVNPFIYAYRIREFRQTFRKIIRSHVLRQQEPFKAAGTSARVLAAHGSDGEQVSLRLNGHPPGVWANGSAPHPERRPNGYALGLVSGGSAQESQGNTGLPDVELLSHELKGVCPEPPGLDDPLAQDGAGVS
mA2a, sequence (Q60613 whole entry): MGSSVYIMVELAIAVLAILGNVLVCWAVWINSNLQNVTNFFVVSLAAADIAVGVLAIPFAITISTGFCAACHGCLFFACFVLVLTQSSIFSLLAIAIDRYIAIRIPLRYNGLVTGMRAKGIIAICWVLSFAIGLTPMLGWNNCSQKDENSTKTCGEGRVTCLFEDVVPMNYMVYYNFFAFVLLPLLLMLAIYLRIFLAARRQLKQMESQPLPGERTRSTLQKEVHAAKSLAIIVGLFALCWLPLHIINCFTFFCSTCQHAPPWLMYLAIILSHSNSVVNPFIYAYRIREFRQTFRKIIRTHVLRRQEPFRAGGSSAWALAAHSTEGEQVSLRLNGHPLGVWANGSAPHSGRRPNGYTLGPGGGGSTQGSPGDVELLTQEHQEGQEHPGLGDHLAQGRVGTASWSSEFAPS
hA2b, sequence (P29275 whole entry): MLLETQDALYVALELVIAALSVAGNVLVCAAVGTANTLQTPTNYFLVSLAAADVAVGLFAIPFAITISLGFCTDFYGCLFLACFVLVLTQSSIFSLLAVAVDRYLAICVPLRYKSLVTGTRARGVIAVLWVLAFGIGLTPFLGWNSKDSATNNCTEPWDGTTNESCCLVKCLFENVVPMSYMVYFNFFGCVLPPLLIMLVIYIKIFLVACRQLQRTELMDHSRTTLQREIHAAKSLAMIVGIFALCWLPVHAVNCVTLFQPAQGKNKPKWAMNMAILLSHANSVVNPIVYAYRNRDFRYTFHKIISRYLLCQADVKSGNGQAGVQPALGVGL
hA3, sequence (P0DMS8 whole entry): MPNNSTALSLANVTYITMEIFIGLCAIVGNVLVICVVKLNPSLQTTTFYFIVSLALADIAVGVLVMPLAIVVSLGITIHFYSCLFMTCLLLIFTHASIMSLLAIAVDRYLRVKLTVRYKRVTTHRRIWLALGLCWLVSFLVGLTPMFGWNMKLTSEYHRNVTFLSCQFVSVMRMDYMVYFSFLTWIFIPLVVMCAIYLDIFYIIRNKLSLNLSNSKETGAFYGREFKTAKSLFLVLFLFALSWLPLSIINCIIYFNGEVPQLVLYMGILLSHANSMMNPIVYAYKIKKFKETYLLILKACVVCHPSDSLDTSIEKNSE

For the molecule `Cc1cc(-c2c(-c3ccc(F)cc3)nc(N)n3nc(Cc4c(F)cccc4F)nc23)c(C)cn1` [Example 13, 2-[(2,6-difluorophenyl)methyl]-8-(2,5-dimethylpyridin-4-yl)-7-(4-fluorophenyl)-[1,2,4]triazolo[1,5-c]pyrimidin-5-amine], the IC50 is 11 nM at hA2a [1]; 81 nM on hA2b; 56 nM at mA2a; 153 nM at hA1 [2]; over 10000 nM on hA3.

As for `Cc1cc(-c2c(-c3ccc(F)cc3)nc(N)n3nc(Cc4ncccc4F)nc23)cc(Cl)n1` [Example 18, 8-(2-chloro-6-methylpyridin-4-yl)-7-(4-fluorophenyl)-2-((3-fluoropyridin-2-yl)methyl)-[l,2,4]triazolo[1,5-c]pyrimidin-5-amine], the IC50 on hA2a [1] is 1.2 nM; on hA2b, 511 nM; on mA2a, 9.6 nM; on hA1 [2] it was 49 nM; against hA3, over 10000 nM.

For `Cn1cc(-c2c(-c3ccc(F)cc3)nc(N)n3nc(Cc4c(F)cccc4F)nc23)ccc1=O` [Example 9, 5-(5-amino-2-(2,6-difluorobenzyl)-7-(4-fluorophenyl)-[1,2,4]triazolo[1,5-c]pyrimidin-8-yl)-l-methylpyridin-2(1H)-one], the IC50 on hA2a [3] is 2.1 nM; on hA1 [4] it was 0.2 nM; on hA2a [1] it was 0.6 nM; at hA2b, 56 nM; at mA2a, 0.8 nM; on hA1 [2], 20 nM. On hA3, this molecule returned an IC50 of over 10000 nM.

Take `Nc1nc(-c2ccc(F)cc2)c(-c2ccnnc2)c2nc(Cc3c(F)cccc3F)nn12` [Example 6, 2-(2,6-difluorobenzyl)-7-(4-fluorophenyl)-8-(pyridazin-4-yl)-[1,2,4]triazolo[1,5-c]pyrimidin-5-amine]: the IC50 at hA2a [1] was 63 nM; at hA2b, 17 nM; at mA2a, 182 nM; on hA1 [2] it was 21 nM; on hA3, over 10000 nM.

For `Cc1cc(-c2c(-c3ccc(F)cc3)nc(N)n3nc(Cc4ncccc4F)nc23)ccn1` [Example 2, 7-(4-fluorophenyl)-2-((3-fluoropyridin-2-yl)methyl)-8-(2-methylpyridin-4-yl)-[l,2,4]triazolo[l,5-c]pyrmidin-5-amine], the IC50 at hA2a [1] is 59 nM; on hA2b, 73 nM; on mA2a it was 59 nM; at hA1 [2], 23 nM; against hA3, over 10000 nM.

Regarding `Cc1cc(-c2c(-c3ccc(F)cc3)nc(N)n3nc(Cc4ncccc4F)nc23)cc(C)n1` [Example 14], the IC50 at hA2a [1] was 6.9 nM; on hA2b it was 2240 nM; at mA2a it was 18 nM; at hA1 [2], 97 nM; against hA3 it was over 10000 nM.

For `Cn1cc(-c2c(-c3ncco3)nc(N)n3nc(Cc4ncccc4F)nc23)ccc1=O` [Example 21, 5-(5-amino-2-((3-fluoropyridin-2-yl)methyl)-7-(oxazol-2-yl)-[1,2,4]triazolo[1,5-c]pyrimidin-8-yl)-1-methylpyridin-2(1H)-one], the IC50 on hA2a [3] is 20 nM; at hA1 [4], 43 nM; on hA2a [1], 36 nM; on hA2b it was 270 nM; at mA2a, 41 nM; at hA1 [2], 113 nM. On hA3, this molecule returned an IC50 of over 10000 nM.

For the molecule `Cc1cc(-c2c(-c3ccc(F)cc3)nc(N)n3nc(Cc4cccc(C#N)n4)nc23)ccn1` [Example 19, 6-((5-amino-7-(4-fluorophenyl)-8-(2-methylpyridin-4-yl)-[1,2,4]triazolo[1,5-f]pyrimidin-2-yl)methyl)picolinonitrile], the IC50 on hA2a [1] was 102 nM; at hA2b, 303 nM; on mA2a, 88 nM; on hA1 [2], 23 nM; on hA3 it was over 10000 nM.

Turning to `Cc1cc(-c2c(-c3ccc(F)cc3)nc(N)n3nc(Cc4cccc(Cl)c4)nc23)ccn1` [Example 8, 2-[(3-chlorophenyl)methyl]-7-(4-fluorophenyl)-8-(2-methylpyridin-4-yl)-[1,2,4]triazolo[1,5-c]pyrimidin-5-amine], the IC50 is 59 nM on hA2a [1]; 2950 nM at hA2b; 98 nM on mA2a; 162 nM at hA1 [2]; over 10000 nM against hA3.

Turning to `Cc1cc(-c2c(-c3ccc(F)cc3)nc(N)n3nc(Cc4cscn4)nc23)ccn1` [Example 7, 7-(4-fluorophenyl)-8-(2-methylpyridin-4-yl)-2-[(1,3-thiazol-4-yl)methyl]-[1,2,4]triazolo[1,5-c]pyrimidin-5-amine], the half-inhibitory concentration (IC50) on hA2a [1] is 102 nM; at hA2b, 1600 nM; at mA2a, 209 nM; at hA1 [2], 23 nM; at hA3, over 10000 nM.

In the case of `Cc1cc(-c2c(-c3ccc(F)cc3)nc(N)n3nc(C(C)c4c(F)cccc4F)nc23)ccn1` (stereo not drawn) [Example 12, 2-[1-(2,6-difluorophenyl)ethyl]-7-(4-fluorophenyl)-8-(2-methylpyridin-4-yl)-[1,2,4]triazolo[1,5-c]pyrimidin-5-amine], the IC50 was 46 nM at hA2a [1]; 5000 nM at hA2b; 316 nM at mA2a; 214 nM on hA1 [2]; over 10000 nM against hA3.

As to `Nc1nc(-c2ccc(F)cc2)c(-c2ccnc(Cl)c2)c2nc(Cc3ncccc3F)nn12` [Example 3, 8-(2-chloropyridin-4-yl)-7-(4-fluorophenyl)-2-((3-fluoropyridin-2-yl)methyl)-[1,2,4]triazolo[1,5-c]pyrmidin-5-amine], the IC50 at hA2a [1] was 56 nM; at hA2b, 65 nM; on mA2a, 70 nM; on hA1 [2] it was 42 nM; against hA3, over 10000 nM.

Consider `Nc1nc(-c2ncco2)c(-c2ccnc(OC(F)F)c2)c2nc(Cc3c(F)cccc3F)nn12` [Example 85, 2-(2,6-difluorobenzyl)-8-(2-(difluoromethoxy)pyridin-4-yl)-7-(oxazol-2-yl)-[1,2,4]triazolo[1,5-c] pyrimidin-5-amine], for which the IC50 on hA2a [3] was 5.5 nM; at hA1 [4] it was 5.4 nM; at hA2a [1], 15 nM; on hA2b it was 48 nM; at mA2a, 11 nM; on hA1 [2] it was 27 nM.

In the case of `Cc1cc(-c2c(-c3ccc(F)cc3)nc(N)n3nc(Cc4nccs4)nc23)ccn1` [Example 11, 7-(4-fluorophenyl)-8-(2-methylpyridin-4-yl)-2-(thiazol-2-ylmethyl)-[1,2,4]triazolo[1,5-c]pyrimidin-5-amine], the IC50 was 34 nM on hA2a [1]; 219 nM at hA2b; 78 nM at mA2a; 9.7 nM on hA1 [2]; over 10000 nM on hA3.

Take `Nc1nc(-c2ncco2)c(-c2ccnc(OC(F)F)c2)c2nc(Cc3ncccc3F)nn12` [Example 86, 8-(2-(difluoromethoxy)pyridin-4-yl)-2-((3-fluoropyridin-2-yl)methyl)-7-(oxazol-2-yl)-[1,2,4]triaz olo[1,5-c]pyrimidin-5-amine]: the IC50 on hA2a [3] stood at 8.3 nM; on hA1 [4], 21 nM; on hA2a [1], 71 nM; at hA2b it was 83 nM; on mA2a, 48 nM; on hA1 [2], 59 nM.

`Cn1cc(-c2c(-c3ccc(C(F)(F)F)cc3)nc(N)n3nc(Cc4ncccc4F)nc23)ccc1=O` [Example 62, 5-(5-amino-2-((3-fluoropyridin-2-yl)methyl)-7-(4-(trifluoromethyl)phenyl)-[l,2,4]triazolo[l,5-c]pyrimidin-8-yl)-l-methylpyridin-2(1H)-one]: the IC50 stood at 5.2 nM at hA2a [3]; 5.1 nM at hA1 [4]; 184 nM at hA2a [1]; 602 nM on hA2b; 318 nM on mA2a; 27 nM at hA1 [2].

By IC50 is commonly meant the midpoint of a concentration-inhibition curve.

For the origin of these results see patent US10858365B2, “Triazolo-pyrimidine compounds and uses thereof” (Dizal (Jiangsu) Pharmaceutical Co., Ltd., priority 2018, dated 2020).
